system: not given; assay: not given; details: not given

For `[N-]=[N+]=N[C@H]1C[C@H](C(=O)Nc2ccc(N3CCOCC3=O)cc2)N(C(=O)Nc2ccc(Cl)cc2)C1` [Compound A9, 1-N-[(4-chlorophenyl)]-2-N-{[4-(3-oxomorpholin-4-yl)phenyl]}-(2R,4S)-4-azidopyrrolidine-1,2-dicarboxamide], which melting point is on record?
Its melting point is 145 °C.

target: factor Xa (Homo sapiens, UniProt P00742); assay: Inhibition of factor Xa (FXa-IC50); type: biochemical; details: Table 1, headed 'Affinity to receptors'; read-out: FXa-IC50
Sequence (P00742 235-488 limits assumed): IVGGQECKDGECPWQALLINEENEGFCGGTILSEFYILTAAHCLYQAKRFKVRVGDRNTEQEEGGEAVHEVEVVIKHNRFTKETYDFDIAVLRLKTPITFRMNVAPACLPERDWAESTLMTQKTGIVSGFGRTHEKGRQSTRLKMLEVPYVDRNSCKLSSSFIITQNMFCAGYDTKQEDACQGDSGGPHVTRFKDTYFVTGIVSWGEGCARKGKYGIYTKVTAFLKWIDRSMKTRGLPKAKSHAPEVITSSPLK
Sequence (P00742 41-179 partner limits assumed): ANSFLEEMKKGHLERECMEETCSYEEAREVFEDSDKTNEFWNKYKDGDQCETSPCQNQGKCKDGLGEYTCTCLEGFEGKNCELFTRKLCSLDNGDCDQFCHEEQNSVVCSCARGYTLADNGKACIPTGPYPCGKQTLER
From the text: The inhibition of factor Xa by the compounds according to the invention and the measurement of the anticoagulant and antithrombotic activity can be determined by conventional in-vitro or in-vivo methods. A suitable method is described, for example, by J. Hauptmann et al. in Thrombosis and Haemostasis 1990, 63, 220-223.
The inhibition of factor Xa can be measured, for example by the method of T. Hara et al. in Thromb. Haemostas. 1994, 71, 314-319.

For `O=C(Nc1ccc(N2CCOCC2=O)cc1)[C@H]1CCCN1C(=O)c1ccc(Cl)s1` [AB1], which IC50 is on record?
Its IC50 is 1800 nM.

For `O=C(Nc1ccc(N2CCOCC2=O)cc1)[C@H]1CCCN1C(=O)Nc1ccc(Cl)cc1` [Compound A1, 1-N-[(4-chlorophenyl)]-2-N-{[4-(3-oxomorpholin-4-yl)phenyl]}-(R)-pyrrolidine-1,2-dicarboxamide], which IC50 is on record?
Its IC50 is 18 nM.

With `O=C(Nc1ccc(-n2ccccc2=O)cc1)[C@H]1C[C@@H](O)CN1C(=O)Nc1ccc(Cl)cn1` [Compound A6, 1-N-[(5-chloropyridin-2-yl)]-2-N-{[4-(2-oxo-2H-pyridin-1-yl)phenyl]}-(2R,4R)-4-hydroxypyrrolidine-1,2-dicarboxamide] as the molecule, how does the IC50 read?
The IC50 was 3.7 nM.

same assay, conditions: read-out: IC50(Xa)

With `CCO[C@@H]1C[C@H](C(=O)Nc2ccc(-n3nc(C)sc3=N)cc2)N(C(=O)Nc2ccc(Cl)cc2)C1` [1-N-[(4-chlorophenyl)]-2-N-{[4-(2-imino-5-methyl-1,3,4-thiadiazol-3-yl)phenyl]}-(2R,4R)-4-ethoxypyrrolidine-1,2-dicarboxamide] as the molecule, how does the IC50 read?
The IC50 was 4.8 nM.

Which IC50 does the source give for `Cc1nn(-c2ccc(NC(=O)[C@H]3C[C@@H](OC(C)C)CN3C(=O)Nc3ccc(Cl)cc3)cc2)c(=N)s1` [1-N-[(4-chlorophenyl)]-2-N-{[4-(2-imino-5-methyl-1,3,4-thiadiazol-3-yl)phenyl]}-(2R,4R)-4-isopropoxypyrrolidine-1,2-dicarboxamide] here?
The IC50 was 3 nM.

Which IC50 does the source give for `CO[C@@H]1C[C@H](C(=O)Nc2ccc(-n3nc(C)sc3=N)cc2)N(C(=O)Nc2ccc(Cl)cc2)C1` [1-N-[(4-chlorophenyl)]-2-N-{[4-(2-imino-5-methyl-1,3,4-thiadiazol-3-yl)phenyl]}-(2R,4R)-4-methoxypyrrolidine-1,2-dicarboxamide] here?
Its IC50 is 6.1 nM.

For `Nc1ccc(O[C@H]2C[C@H](C(=O)Nc3ccc(N4CCOCC4=O)cc3)N(C(=O)Nc3ccc(Cl)cc3)C2)cc1` [Example 13-16, 1-N-[(4-chlorophenyl)]-2-N-{[4-(3-oxomorpholin-4-yl)phenyl]}-(2R,4S)-4-(4-aminophenoxy)pyrrolidine-1,2-dicarboxamide], which IC50 is on record?
The IC50 was 25 nM.

With `O=C(Nc1ccc(N2CCOCC2=O)cc1)[C@H]1C[C@@H](OCC(F)(F)F)CN1C(=O)Nc1ccc(Cl)cc1` [Example 13-18, 1-N-[(4-chlorophenyl)]-2-N-{[4-(3-oxomorpholin-4-yl)phenyl]}-(2R,4R)-4-(2,2,2-trifluoroethoxy)pyrrolidine-1,2-dicarboxamide] as the molecule, how does the IC50 read?
Its IC50 is 9.7 nM.
